In ChEMBL document CHEMBL1201862, “PubChem BioAssay data set” (2004):
Calls of active or inactive are those of the source.

What was measured:
Trypsin = Trypsin (Sus scrofa, UniProt P00761); experiment: porcine trypsin inhibitors, dose response, selectivity assay for Rce1 protease inhibitor project, biochemical, quenched peptide fluorescence, cherry-pick (AID 488789)
CAAX prenyl protease 2 = target: T1, CAAX prenyl protease 2 (Homo sapiens, UniProt Q9Y256); experiment: human Rce1 protease inhibitors, dose response, biochemical, yeast membranes, quenched-peptide fluorescence, cherry-pick (AID 588849)
T1 sequence (Q9Y256 whole entry): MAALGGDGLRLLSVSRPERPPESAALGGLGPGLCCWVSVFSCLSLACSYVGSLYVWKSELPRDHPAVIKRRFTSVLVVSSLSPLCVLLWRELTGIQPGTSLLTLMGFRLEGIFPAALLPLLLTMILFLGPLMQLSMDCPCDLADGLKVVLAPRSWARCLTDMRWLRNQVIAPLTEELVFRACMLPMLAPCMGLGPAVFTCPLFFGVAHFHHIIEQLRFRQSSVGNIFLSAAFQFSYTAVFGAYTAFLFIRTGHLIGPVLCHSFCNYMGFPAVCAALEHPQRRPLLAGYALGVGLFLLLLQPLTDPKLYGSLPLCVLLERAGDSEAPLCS

INS1 = experiment: beta cell apoptosis inhibitors, cytokine rescue, dose response, luminescence, retest (AID 449756); assay type: functional, cell-based; conditions: Rattus norvegicus;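 further: cell death triggered by IL-1 beta plus TNF-alpha plus IFN-gamma mixture; protective hits raise ATP signal compared with cytokine alone wells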
BJ = experiment: cytotoxicity toward Ras-transformed BJeLR fibroblasts, dose response, cell-based, alamar blue fluorescence, cherrypicked samples (AID 2631); assay type: functional; conditions: Homo sapiens;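 further: confirmatory dose-response assay in RAS-dependent BJ fibroblasts engineered with TERT, LT and ST, with cytotoxicity read by fluorescence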
Mu-type opioid receptor = Mu-type opioid receptor (Homo sapiens, UniProt P35372); experiment: (§1) Counterscreen for agonists of heterodimerization of the mu 1 (OPRM1) and delta 1 (OPRD1) opioid receptors: Luminescence-based cell-based high throughput dose response assay to identify agonists of OPRM1 homodimerization.; assay type: functional
[1] = target: Delta-type opioid receptor (Homo sapiens, UniProt P41143); experiment: as §1, with “of OPRD1” for “of OPRM1”, “homodimerization. [Related pubchem assays (depositor defined):AID504326, AID504355, AID504692, AID504904, AID504905]” for “homodimerization.”; assay type: functional
[2] = target: T2, Short transient receptor potential channel 4 (Mus musculus, UniProt Q9QUQ5); experiment: mouse TRPC4 channel activators, dose response, cell-based, HEK293 TRPC4/mu-opioid, Fluo-4 calcium (AID 434937); assay type: functional
T2 sequence (Q9QUQ5 whole entry): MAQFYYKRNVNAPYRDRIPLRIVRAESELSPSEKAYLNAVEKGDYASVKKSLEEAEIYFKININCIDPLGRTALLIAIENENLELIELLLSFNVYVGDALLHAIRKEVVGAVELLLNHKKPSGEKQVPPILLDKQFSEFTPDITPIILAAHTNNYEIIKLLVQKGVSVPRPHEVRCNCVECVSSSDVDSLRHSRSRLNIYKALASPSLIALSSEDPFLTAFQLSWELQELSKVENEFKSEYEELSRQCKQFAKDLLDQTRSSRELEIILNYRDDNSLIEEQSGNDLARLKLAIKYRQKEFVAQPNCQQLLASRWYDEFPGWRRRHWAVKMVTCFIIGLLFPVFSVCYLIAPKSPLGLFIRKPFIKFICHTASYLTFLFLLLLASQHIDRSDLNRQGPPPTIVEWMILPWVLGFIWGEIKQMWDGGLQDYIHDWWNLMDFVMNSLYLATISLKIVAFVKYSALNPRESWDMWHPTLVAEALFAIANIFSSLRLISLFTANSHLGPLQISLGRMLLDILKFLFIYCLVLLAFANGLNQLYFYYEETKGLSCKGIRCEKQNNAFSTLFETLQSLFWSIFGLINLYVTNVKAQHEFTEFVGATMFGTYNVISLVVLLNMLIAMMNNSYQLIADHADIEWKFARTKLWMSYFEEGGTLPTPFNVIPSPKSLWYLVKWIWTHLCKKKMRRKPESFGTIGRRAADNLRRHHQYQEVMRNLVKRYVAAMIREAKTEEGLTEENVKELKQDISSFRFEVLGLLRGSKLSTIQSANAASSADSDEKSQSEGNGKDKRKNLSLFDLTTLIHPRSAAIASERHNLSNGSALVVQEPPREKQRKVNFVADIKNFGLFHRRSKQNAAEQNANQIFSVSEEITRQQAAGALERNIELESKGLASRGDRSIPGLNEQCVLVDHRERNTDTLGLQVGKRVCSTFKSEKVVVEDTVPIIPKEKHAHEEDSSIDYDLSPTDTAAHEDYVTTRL

[3] = target: 5-hydroxytryptamine receptor 5A (Homo sapiens, UniProt P47898); experiment: Counterscreen for agonists of OPRM1-OPRD1 heterodimerization: luminescence-based cell-based high throughput dose response assay to identify agonists of 5-hydroxytryptamine (serotonin) 5A receptor (HTR5A). [Related pubchem assays (depositor defined):AID504326, AID504355, AID504692, AID504904, AID504905]; assay type: functional
[4] = target: T3, Sentrin-specific protease 8 (Homo sapiens, UniProt Q96LD8); experiment: SENP8 protease inhibitors, SAR follow-up, biochemical, luminescence (AID 504501); assay type: functional
T3 sequence (Q96LD8 whole entry): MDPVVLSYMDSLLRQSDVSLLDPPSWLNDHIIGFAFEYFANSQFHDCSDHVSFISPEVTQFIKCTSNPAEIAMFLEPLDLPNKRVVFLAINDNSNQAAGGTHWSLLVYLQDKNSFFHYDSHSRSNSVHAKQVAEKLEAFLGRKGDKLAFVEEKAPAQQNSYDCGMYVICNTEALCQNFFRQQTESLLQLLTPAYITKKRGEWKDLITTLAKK

[5] = target: T4, Sentrin-specific protease 7 (Homo sapiens, UniProt Q9BQF6); experiment: SENP7 protease inhibitors, SAR follow-up, biochemical, luminescence (AID 504497); assay type: functional
T4 sequence (Q9BQF6 whole entry): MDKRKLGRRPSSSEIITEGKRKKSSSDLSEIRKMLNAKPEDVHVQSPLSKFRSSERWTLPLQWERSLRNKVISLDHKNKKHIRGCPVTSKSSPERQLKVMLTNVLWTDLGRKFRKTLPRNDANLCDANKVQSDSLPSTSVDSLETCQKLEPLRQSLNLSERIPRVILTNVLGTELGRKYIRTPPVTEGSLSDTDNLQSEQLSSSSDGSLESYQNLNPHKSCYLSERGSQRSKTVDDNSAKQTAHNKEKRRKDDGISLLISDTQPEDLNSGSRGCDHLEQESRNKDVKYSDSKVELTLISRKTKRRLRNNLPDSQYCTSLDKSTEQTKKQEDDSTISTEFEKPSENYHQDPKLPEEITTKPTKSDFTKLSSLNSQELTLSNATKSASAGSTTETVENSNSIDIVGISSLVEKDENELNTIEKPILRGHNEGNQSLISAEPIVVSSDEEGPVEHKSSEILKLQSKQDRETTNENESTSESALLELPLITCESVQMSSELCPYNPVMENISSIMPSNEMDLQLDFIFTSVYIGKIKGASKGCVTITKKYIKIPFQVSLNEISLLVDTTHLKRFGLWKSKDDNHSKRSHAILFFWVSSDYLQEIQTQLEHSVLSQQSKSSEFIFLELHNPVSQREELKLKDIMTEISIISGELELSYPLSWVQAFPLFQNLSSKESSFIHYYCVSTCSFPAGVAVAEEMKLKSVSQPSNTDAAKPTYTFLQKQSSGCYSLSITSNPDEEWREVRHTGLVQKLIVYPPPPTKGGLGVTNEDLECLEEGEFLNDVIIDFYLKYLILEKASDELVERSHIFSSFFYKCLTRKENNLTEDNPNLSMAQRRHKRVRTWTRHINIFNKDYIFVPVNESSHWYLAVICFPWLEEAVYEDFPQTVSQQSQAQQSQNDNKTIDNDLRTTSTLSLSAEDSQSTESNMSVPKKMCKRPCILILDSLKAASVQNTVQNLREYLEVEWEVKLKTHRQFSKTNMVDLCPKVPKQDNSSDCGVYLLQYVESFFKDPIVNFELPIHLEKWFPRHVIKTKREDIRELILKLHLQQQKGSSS

Caspase-3 = target: T5, Caspase-3 (Homo sapiens, UniProt P42574); experiment: SAR Analysis of small molecule inhibitors of Sentrin-specific proteases (SENPs) using a Caspase-3 Selectivity assay. [Related pubchem assays (depositor defined):AID2540, AID2599, AID434973, AID489001]; assay type: functional
T5 sequence (P42574 whole entry): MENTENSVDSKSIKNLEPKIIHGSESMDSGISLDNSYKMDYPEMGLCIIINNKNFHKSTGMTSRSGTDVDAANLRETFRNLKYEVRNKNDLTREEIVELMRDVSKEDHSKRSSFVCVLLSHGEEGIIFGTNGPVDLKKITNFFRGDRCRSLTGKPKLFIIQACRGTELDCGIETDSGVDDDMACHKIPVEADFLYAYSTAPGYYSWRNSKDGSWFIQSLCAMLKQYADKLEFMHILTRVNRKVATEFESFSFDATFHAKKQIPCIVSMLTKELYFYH

[6] = target: T6, Sentrin-specific protease 6 (Homo sapiens, UniProt Q9GZR1); experiment: SAR Analysis of small molecule inhibitors of Sentrin-specific protease 6 (SENP6) using a Luminescent assay. [Related pubchem assays (depositor defined):AID2582, AID2599]; assay type: functional
T6 sequence (Q9GZR1 whole entry): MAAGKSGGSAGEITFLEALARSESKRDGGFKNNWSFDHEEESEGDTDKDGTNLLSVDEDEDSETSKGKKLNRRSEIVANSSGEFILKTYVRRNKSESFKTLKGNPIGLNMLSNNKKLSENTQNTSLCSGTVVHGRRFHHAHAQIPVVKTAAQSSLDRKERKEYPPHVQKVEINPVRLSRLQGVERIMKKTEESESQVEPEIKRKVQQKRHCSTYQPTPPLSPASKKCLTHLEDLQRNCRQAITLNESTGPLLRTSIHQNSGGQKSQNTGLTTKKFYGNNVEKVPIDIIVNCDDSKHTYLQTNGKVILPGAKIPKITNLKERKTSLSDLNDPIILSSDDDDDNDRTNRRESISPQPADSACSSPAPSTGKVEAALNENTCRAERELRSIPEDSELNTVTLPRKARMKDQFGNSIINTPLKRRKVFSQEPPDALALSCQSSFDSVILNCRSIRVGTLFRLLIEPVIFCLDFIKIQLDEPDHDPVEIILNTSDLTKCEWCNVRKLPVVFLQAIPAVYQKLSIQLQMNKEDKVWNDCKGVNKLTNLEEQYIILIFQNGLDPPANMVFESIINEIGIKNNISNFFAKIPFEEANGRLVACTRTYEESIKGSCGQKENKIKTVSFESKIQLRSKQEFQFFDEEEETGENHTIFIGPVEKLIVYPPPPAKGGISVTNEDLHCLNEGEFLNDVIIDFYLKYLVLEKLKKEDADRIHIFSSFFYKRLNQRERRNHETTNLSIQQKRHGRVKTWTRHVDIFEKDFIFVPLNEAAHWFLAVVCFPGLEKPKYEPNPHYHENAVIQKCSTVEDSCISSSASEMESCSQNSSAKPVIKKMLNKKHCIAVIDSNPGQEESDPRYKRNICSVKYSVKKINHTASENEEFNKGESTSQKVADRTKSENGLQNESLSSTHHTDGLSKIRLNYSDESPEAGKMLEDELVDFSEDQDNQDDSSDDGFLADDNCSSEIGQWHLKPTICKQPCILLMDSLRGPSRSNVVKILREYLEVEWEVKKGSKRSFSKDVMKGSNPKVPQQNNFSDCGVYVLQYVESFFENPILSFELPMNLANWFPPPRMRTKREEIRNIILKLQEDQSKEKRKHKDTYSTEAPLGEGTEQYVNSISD

Trypsin, sequence (P00761 whole entry): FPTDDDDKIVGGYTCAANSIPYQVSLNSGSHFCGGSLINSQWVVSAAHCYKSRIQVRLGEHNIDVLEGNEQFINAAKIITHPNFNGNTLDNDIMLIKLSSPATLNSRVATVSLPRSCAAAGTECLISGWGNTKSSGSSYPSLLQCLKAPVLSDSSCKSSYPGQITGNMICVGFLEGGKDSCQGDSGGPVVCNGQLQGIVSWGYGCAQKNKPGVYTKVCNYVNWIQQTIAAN
Delta-type opioid receptor, sequence (P41143 whole entry): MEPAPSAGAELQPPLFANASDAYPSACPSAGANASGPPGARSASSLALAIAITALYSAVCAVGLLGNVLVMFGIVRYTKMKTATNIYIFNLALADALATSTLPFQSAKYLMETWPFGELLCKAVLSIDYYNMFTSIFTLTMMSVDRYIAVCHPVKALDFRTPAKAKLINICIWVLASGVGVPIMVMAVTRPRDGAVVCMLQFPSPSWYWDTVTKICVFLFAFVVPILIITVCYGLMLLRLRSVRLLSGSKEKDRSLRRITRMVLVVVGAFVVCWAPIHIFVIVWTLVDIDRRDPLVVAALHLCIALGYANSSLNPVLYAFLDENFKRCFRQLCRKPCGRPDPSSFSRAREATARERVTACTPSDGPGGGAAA
5-hydroxytryptamine receptor 5A, sequence (P47898 whole entry): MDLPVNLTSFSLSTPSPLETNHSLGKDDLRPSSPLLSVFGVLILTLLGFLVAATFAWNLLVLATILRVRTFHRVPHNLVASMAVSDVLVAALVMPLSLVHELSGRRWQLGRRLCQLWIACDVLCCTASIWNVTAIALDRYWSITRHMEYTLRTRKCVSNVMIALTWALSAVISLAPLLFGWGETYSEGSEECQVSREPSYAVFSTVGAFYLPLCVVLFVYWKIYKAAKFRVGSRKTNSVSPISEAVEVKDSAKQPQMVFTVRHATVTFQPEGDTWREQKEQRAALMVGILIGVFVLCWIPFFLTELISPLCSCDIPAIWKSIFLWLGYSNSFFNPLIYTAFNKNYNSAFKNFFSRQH
Mu-type opioid receptor, sequence (P35372 whole entry): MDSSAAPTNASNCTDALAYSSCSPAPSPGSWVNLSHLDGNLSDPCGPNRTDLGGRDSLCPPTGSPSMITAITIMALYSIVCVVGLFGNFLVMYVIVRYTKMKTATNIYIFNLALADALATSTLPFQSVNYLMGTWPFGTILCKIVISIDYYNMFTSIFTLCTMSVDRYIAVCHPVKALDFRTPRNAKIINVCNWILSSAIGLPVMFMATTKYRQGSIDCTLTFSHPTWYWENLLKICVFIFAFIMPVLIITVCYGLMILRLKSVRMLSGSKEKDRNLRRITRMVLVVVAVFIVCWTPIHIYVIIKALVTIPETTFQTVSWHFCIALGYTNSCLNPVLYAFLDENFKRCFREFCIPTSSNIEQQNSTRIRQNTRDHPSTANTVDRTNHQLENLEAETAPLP

| SMILES | AC50 (Trypsin) | AC50 (CAAX prenyl protease 2) | IC50 [5] | IC50 (Caspase-3) | IC50 [6] | IC50 [4] | other results |
| --- | --- | --- | --- | --- | --- | --- | --- |
| OC(c1cc(-c2ccc(Cl)cc2)nc2ccccc12)C1CCCCN1 (stereo not drawn) |  |  |  |  |  |  | AC50 (INS1): 12200 nM (active); EC50 (BJ): > 133000 nM (inactive) |
| CN(C)C(CN=C(S)Nc1cccc(Cl)c1)c1ccccc1 (stereo not drawn) |  |  |  |  |  |  | EC50 (Mu-type opioid receptor): 4640 nM (active); EC50 [1]: 11500 nM (inactive); EC50 [2]: 596 nM (active); EC50 [3]: > 92500 nM (inactive) |
| Clc1ccccc1-c1nnc(/C=C/c2cccs2)o1 |  |  | 1960 nM (active) | 1300 nM (active) | 2010 nM (active) | 2060 nM (active) |  |
| CN(C)c1ccc(/C=N/NC(=O)C(O)c2ccc(Br)cc2)cc1 (stereo not drawn) | 2800 nM (active) | 2170 nM (active) |  |  |  |  |  |

The next lines start with results.

| AC50 (Trypsin) | AC50 (CAAX prenyl protease 2) | IC50 [5] | IC50 (Caspase-3) | IC50 [6] | SMILES | IC50 [4] | other results |
| --- | --- | --- | --- | --- | --- | --- | --- |
| 8500 nM (active) | 8530 nM (active) |  |  |  | Cc1cc(C)n2cc(CSC3=NCCS3)nc2n1 |  |  |
|  |  | 1300 nM (active) | 1100 nM (active) | 1300 nM (active) | CSc1ccc(/C=C/c2noc(-c3ccccc3O)n2)cc1 | 1300 nM (active) |  |
